The text below walks through data of patent publication US8476288B2, “Salts 756” (AstraZeneca AB, priority 2009, dated 2013).

Where a name gives a salt, the structure may show the parent alone.

What all share (format): physicochemical
Data set [1] is described as follows: Dynamic vapour sorption (DVS) hygroscopicity. The note with it: at 80% relative humidity, weight change from 0% RH to 80% RH in second DVS cycle. On the procedure: DVS analysis was performed using an SMS Dynamic Vapour Sorption DVS-Advantage instrument. The solid sample (approximately 1-5 mg) was placed into a platinum sample holder and the weight of the sample was recorded during a dual cycle step method (40 to 90 to 0 to 90 to 0% relative humidity (RH), in steps of 10% RH).
The responses of the mono-fumaric acid salt and the difumaric acid salt (Examples 15 and 19) to changes in humidity were investigated using DVS. The hygroscopicity was calculated as the relative change in weight of the sample between 0% RH at the start of the second cycle and 80% RH during the increase of humidity in the second cycle.
The hygroscopicity of a sample is dependent on factors in addition to the inherent properties of the pure solid form itself, for example the purity and the crystallinity of the sample will have some impact on the result.

Data set [2] is described as follows: Salt storage stability at 40° C. and 75% relative humidity (HPLC for acid degradation product of Formula (A)). To be noted: stored under high temperature and humidity, for example 40° C. and 75% relative humidity. On the procedure: The stability of the stability of the mono-saccharin (2 different batches), mono-trans-cinnamic acid, mono-succinic acid, mono-benzoic acid, difumaric acid, dixinafoic acid (di-1-hydroxy-2-naphthoic acid) and disaccharin salts of Compound (I) when stored at 40° C. and 75% relative humidity was measured as follows.
Approximately 30 mg of each salt was weighted into 4 mL screw cap vials, the vials closed and stored at 40° C./75% relative humidity with constant control of the environmental conditions. For every time point the samples were removed from the storage facility and analysed by HPLC for the presence of the acid degradation product of the Formula (A): […]
The HPLC analysis was performed using the following method:
A sample solution was prepared at approximately 0.1 to 0.2 mg/mL in the sample diluent, 0.03% trifluoroacetic acid in 50/50 v/v acetonitrile/water, using sonication as required. The following chromatographic conditions were applied: […]

Data set [3] can be described thus: Salt/lactose monohydrate blend storage stability at 40° C. and 75% relative humidity. To be noted: mixtures of salt with lactose monohydrate; 40° C./75% relative humidity. On the procedure:
The storage stability of blends of lactose monohydrate with the mono-saccharin, mono-benzoic acid, difumaric acid and disaccharin salts of Compound (I) when stored at is 40° C. and 75% relative humidity was measured as follows.
Approximately 5 grams of each salt were micronised using a 1″ jet mill (MC One, Jetpharma, Balerna, Switzerland) with Nitrogen as the flow gas.
10 g of bulk lactose blend of each salt was prepared by the following method:
Micronised lactose monohydrate (9800 mg) was added to a 60 ml clear glass bottle. To this was added the micronised salt of compound (I) (200 mg) and a rubber stopper and aluminium screw cap used to close the bottle.
The bottle containing the salt and lactose monohydrate was placed in a trembling blender (Turbula T2C, W. Bachofen, Basel, Switzerland) blending vessel and the mixture blended for 10 minutes on speed 1 (30 rpm). A sample (2 g) of the lactose/salt blend was removed. The remaining of lactose/salt blend (8 g) was placed in a stability suite (controlled environmental conditions) at 40° C./75% relative humidity. The sample was temporarily removed from the storage facility for analysis. For each analysis 50 mg of the lactose/salt blend were dissolved in the sample diluents and analysed by HPLC for the compound of Formula (A) as described above in Example 23.

For `CCCCCNc1nc(N)nc(C)c1Cc1ccc(CC(=O)OCCCCN(C)C)cc1.O=C(O)/C=C/C(=O)O` [Example 15, 4-(Dimethylamino)butyl 2-(4-((2-amino-4-methyl-6-(pentylamino)pyrimidin-5-yl)methyl)phenyl)acetate fumaric acid salt], the “moisture uptake (hygroscopicity)” value in data set [1] is reported as “more than 2 % w/w”. As for `CCCCCNc1nc(N)nc(C)c1Cc1ccc(CC(=O)OCCCCN(C)C)cc1.O=C(O)c1ccccc1` [Example 1, 4-(Dimethylamino)butyl 2-(4-((2-amino-4-methyl-6-(pentylamino)pyrimidin-5-yl)methyl)phenyl)acetate benzoic acid salt], the “solid state chemical stability on storage” value in data set [2] was “good solid state chemical stability”. On to `CCCCCNc1nc(N)nc(C)c1Cc1ccc(CC(=O)OCCCCN(C)C)cc1` [disaccharin salt of Compound (I)], for which, in data set [3], the “stability in the presence of lactose monohydrate” value is listed as “particularly stable in the presence of lactose monohydrate”. Also, in data set [2], the “solid state chemical stability on storage” value is “good solid state chemical stability”. Turning to `CCCCCNc1nc(N)nc(C)c1Cc1ccc(CC(=O)OCCCCN(C)C)cc1.O=C(O)/C=C/C(=O)O` [Example 19, 4-(Dimethylamino)butyl 2-(4-((2-amino-4-methyl-6-(pentylamino)pyrimidin-5-yl)methyl)phenyl)acetate difumaric acid salt], the “moisture uptake (hygroscopicity)” value in data set [1] (listed as difumaric acid salt of Compound (I)) is on record as 0.2-2 % w/w. For the same compound, the “stability in the presence of lactose monohydrate” value in data set [3] is recorded as “particularly stable in the presence of lactose monohydrate”. Besides, the “solid state chemical stability on storage” value in data set [2] is reported as “good solid state chemical stability”.
